Laboratory results as given in a melting point compilation (Tetko et al.; mined from patent text by program, amines drawn as free bases though some values may be those of a salt).

Compound	melting point [°C]
CON=C(C(C)=NN=Cc1ccccc1N(OC)C(=O)OC)c1ccc(F)cc1	88 to 90
CNc1ccc2[nH]ccc2c1	113 to 114
CC(NC(=O)CN1CCCC1=O)C(=O)N1CC(=O)NC1(C)C (centres undefined)	198 to 200
CC1CCn2c(nc(-c3ccncn3)cc2=O)N1 (centres undefined)	199 to 201
CC(=O)n1c(=O)oc2c3ncccc3ccc21	192 to 193
COc1cc2c(cc1OC)C(c1ccc(Cl)cc1)=NN=C(C)C2	188 to 198
CCCP(=O)(O)CCCN	210 to 213
CN(C)CCC1CCc2cc(OCc3ccc(O)cc3)ccc2C1 (centres undefined)	132 to 135
CN1CCC(Oc2c(F)cc3c(=O)c(C(=O)O)cn(C4CC4)c3c2F)CC1	166 to 167
O=C(c1ccc(Cl)cc1)N1CCc2nnc(Cl)cc2C1	170 to 172
Cc1ccc(C)c(-c2nsc3ccccc23)c1	87
Cc1ccc(O[C@@H](Cc2ccc(O)cc2)C(=O)N2C(=O)OC[C@@H]2Cc2ccccc2)cc1	135 to 136
O=[N+]([O-])c1ccccc1-c1ccno1	66 to 69
Cn1c(CCOc2ccc(CC3SC(=O)NC3=O)cc2)nc2cccnc21 (centres undefined)	96 to 100
CC1c2ccccc2-c2ccccc2N1S(=O)(=O)c1ccc(O)cc1 (centres undefined)	196 to 198
CCOC(=O)c1cccc(CSc2nc(-c3ccc(OC)cc3)c(-c3ccc(OC)cc3)[nH]2)c1	147 to 149
CS(=O)(=O)Nc1nc(CCCN2CCN(C(c3ccccc3)c3ccccc3)CC2)cs1	181 to 183
CC(C)CCN1C(=O)C(N)C(=O)N(CC23CC4CC(CC(C4)C2)C3)c2ccccc21 (centres undefined)	218 to 219
CCOC(=O)/C(N)=C/C(=O)/C=C/c1ccc(Cl)cc1F	102 to 103
FC(F)(F)c1cc(N=NNc2cc(C(F)(F)F)cc(C(F)(F)F)c2)cc(C(F)(F)F)c1	137 to 138
CC(C)(C)c1nc2cc(CC#N)ccc2s1	50 to 52
CCC(Oc1cc(N)c(Cl)cc1C(=O)NCCN(CC)CC)C(C)=O (centres undefined)	75 to 78
CC(C)CCCC(C)NC(=O)CCC(=O)c1ccccc1 (centres undefined)	84 to 87

Compound	melting point [°C]
O=C1NCN(c2ccc(Br)cc2)C12CCN(C1C=CC(c3ccc(F)cc3)(c3ccc(F)cc3)CC1)CC2 (centres undefined)	219 to 221
Cc1cccc2nc3n(c12)CC(c1ccccn1)S3=O (centres undefined)	148
O=C1Cc2c(cccc2OCCNCc2ccccc2)N1	145 to 146
ClCc1nc2sc3c(c2c(-c2ccc(Cl)cc2)c1Cl)CCN(Cc1ccccc1)C3	204 to 205
COc1cc(CSCCNC(=O)c2c(Cl)cccc2Cl)cc(OC)c1	46 to 47
NC(=O)c1nc(CCl)n(-c2ccc(Cl)cc2C(=O)c2ccccc2)n1	128 to 130
COc1ccc(C=O)cc1OCc1nc(-c2ccccc2)oc1C	121 to 122
CC(c1ccccc1)n1ncc(-c2nc(-c3ccco3)n[nH]2)c1N (centres undefined)	175 to 176
N#Cc1ccc(C(=O)N2CCN(NC(=O)c3ccc(F)cc3)CC2)cc1	222 to 224
NS(=O)(=O)c1cccc(C2(O)CCCC2)c1	155
CCOc1nc(C(F)(F)F)cc(=O)n1-c1cc(OC)c(Cl)cc1F	117 to 119
CCc1cccc2c3c([nH]c12)C(CC)(CCOC)OCC3 (centres undefined)	125 to 126
CC=CC(=O)Nc1cc(C(C)(C)C)c(O)c(C(C)(C)C)c1	211 to 214
COc1cc(OC)c(C23CC4CC(CC(C4)C2)C3)cc1C(=O)O	213 to 214
CN(C)C(=O)c1cc2c(c(C(=O)O)c1)OC(c1ccccc1)(c1ccccc1)O2	207 to 208
N#Cc1nn(-c2c(Cl)cc(C(F)(F)F)cc2Cl)cc1C=NO	170
CN(C)C(=O)Cc1nnc2n1-c1ccc(Cl)cc1C(c1ccccc1)=NC2	204 to 206
CCOC(=O)c1cccc2nc(OCC)n(Cc3ccc(-c4ccccc4-c4nnn[nH]4)cc3)c12	158 to 159
O=C(Nc1cccc(O)c1)O[C@@H]1CN=C(c2ccccc2)O[C@H]1c1ccccc1 (racemic)	170
CO[C@H]1CC[C@H](N(C)C(=S)c2ccc3nonc3c2)CC1	137 to 138
CCOP(=O)(/C=C/c1cn(-c2ccccc2)nc1OCc1ccc(OCc2nc(-c3cccnc3)oc2C)c(OC)c1)OCC	128 to 129
CCC(CC)Nc1c([N+](=O)[O-])cc(C#N)c(COC)c1[N+](=O)[O-]	46 to 49
O=C(c1ccccc1)n1c(=O)n(C2CCN(CCCN3c4cccc5cccc(c45)S3(=O)=O)CC2)c2ccccc21	133

Compound	melting point [°C]
OC(CN1CC=C(c2ccc(Cl)cc2)CC1)c1ccc(Cl)cc1 (centres undefined)	152 to 153
COc1ccc(N2CCOP(=O)(Oc3ccccc3)OCC2)cc1	124 to 126
COc1cccc2c1c1nc3ccccc3cc1n2C(C)=O	125 to 126
Cc1ccc(-c2[nH]c(-c3cccnc3)nc2C(=O)O)cc1	140 to 142
CCCc1nc2c(N)nc3cc(OCc4ccccc4)ccc3c2n1CC(C)C	206 to 208
COc1ccccc1-c1ccc2c(c1)CCCc1c-2nc2ccc(F)cc2c1C(=O)O	> 300
COC(=O)c1ccc(-c2nn(Cc3ccccc3)c3ccc(N)cc23)o1	195 to 196
C=CCC1c2ccccc2Cn2cc3c(c21)C(=O)c1ccccc1C3=O (centres undefined)	159 to 160
CSc1nc(-c2ccccc2)n(-c2ccc(F)cc2)c(=O)c1C#N	204 to 205
CON=C(CCC(=O)O)c1ccc(-c2ccc(Cl)cc2)cc1	183 to 186
COc1ccccc1-c1nc(N)c(C#N)nc1-c1ccc(=O)n(C(C)C)c1	223
C#CCOc1cc(NC(=O)CC(CC(=O)O)C(F)(F)F)ccc1Cl (centres undefined)	128 to 130
CCOC(=O)CC1SC2=Nc3ccccc3CN2C1=O (centres undefined)	130 to 142
O=c1[nH]c2ccccc2n1CCCCN1CCC(O)(c2ccc(Cl)cc2)CC1	161
Cc1cccc(CNC(=O)CC#N)c1	110 to 112
COc1cc(OC)nc(-n2ncn(N)c2=O)n1	238
COc1cc(OC)c2c(=O)[nH]c(-c3ccc(OCCO)c(-c4ccccc4S(C)(=O)=O)n3)nc2c1	92 to 93
CC(=O)Nc1cccc(C(=O)N2CCN(CCc3ccc(Cl)cc3)CC2)c1	101 to 107
CCSc1nc2cc(Cl)ccc2s1	49 to 50
CC(C)c1cn2ccccc2c1S(=O)(=O)c1ccc(OCCCN2CCN(C(c3ccccc3)c3ccccc3)CC2)cc1	170
O=C1c2ccccc2C(=O)c2c1nc1c(Cl)cccn21	> 300
COc1cc(C#C[Si](C)(C)C)c(OC)cc1C#C[Si](C)(C)C	164 to 165

The next lines start with the values.

melting point [°C]	Compound
212 to 213	O=C1c2ccccc2C(=O)N1Oc1ccc(-c2nc(=O)c3ccccc3s2)cn1
110 to 113	Cc1cc(CC#N)cc(Cc2nc3c(F)c(F)cc(F)c3s2)c1
200 to 203	CC(=O)OC(c1ccc(NC(=O)c2ccc(-c3ccc(Cl)cc3)cc2)cc1)C1CCCNC1 (centres undefined)
275 to 276	CNC(=O)c1c(NC(=O)COC)c(OC)c(C(=O)NC)c(NC(=O)COC)c1OC
108	O=C(Cc1ccccc1)c1ccc(OCC(F)(F)F)cc1
295	CNC(=O)c1ccccc1Nc1nc(Nc2ccc3c(c2)C(C)(C)CCC(=O)N3)ncc1Cl
140 to 142	COC(=O)C(N)C(C)(C)SSc1ccccc1C(=O)Nc1ccc(S(N)(=O)=O)cc1 (centres undefined)
217 to 220	CS(=O)(=O)Nc1ccc([N+](=O)[O-])cn1
155 to 157	O=C(Nc1ccc(F)cc1)NS(=O)(=O)C1CCCC1
109 to 110	CCOC(=O)C1(c2cccc(OCc3ccc4c(ccc(=O)n4C)c3)c2)CCOCC1
161 to 163	O=C(C=Cc1ccc2ccccc2c1)NCCCCCC(=O)NO
205	CCSc1c(CO)nc(C)n1Cc1ccc(-c2ccccc2C(=O)O)cc1
194 to 197	COc1ccc2c(c1)C(=O)N(c1ccc3ncccc3c1)C2
> 260	O=C(O)c1cnc(N2CCN(S(=O)(=O)c3ccc4ccccc4c3)CC2)nc1
175 to 176	CC/C(=C(\c1ccc(/C=C/C(=O)O)cc1)c1ccc(OC(=O)c2cccs2)cc1)c1ccccc1
131 to 133	CSc1cc(C)nc(SC)c1NC(=O)CCCSc1nc2ccccc2s1

melting point [°C]	Compound
245	Cc1cccc(NC(=O)C2=C(O)c3ccc4ccccc4c3S(=O)(=O)N2)c1
225 to 227	NC(=O)c1ccc(F)c2c1C=C([N+](=O)[O-])CO2
215 to 217	COc1ccc(C(=O)NCc2ccc3c(c2)C(=O)N(C2CCC(=O)NC2=O)C3=O)cc1 (centres undefined)
238	CSc1ccc2[nH]c(=O)n(CCN3CCC(Nc4nc5ccccc5n4Cc4ccc(F)cc4)CC3)c(=O)c2c1
130	CC(C)(C)OC(=O)Nc1cc(OC(C)(C)C)c(-c2ccccc2F)cc1N
125 to 126	OCc1cc2ccc3c4ccccc4ccc3c2o1
161	CCOP(=O)(OCC)C1CCc2cc(C(F)(F)F)cc3[nH]c(=O)c(=O)n1c23 (centres undefined)
110 to 111	CCCCCCCCC(SCCCCCC)C(=O)Nc1c(OC)cc(Cl)c2ncccc12 (centres undefined)
102 to 104	COc1ccccc1CP(CCP(Cc1ccccc1OC)c1ccccc1)c1ccccc1 (centres undefined)
203 to 206	COC(=O)C1=C(C)NC(C)=C(C(=O)NC(C)C)C1c1ccccc1[N+](=O)[O-] (centres undefined)
149 to 155	CN(C)CCOc1ccc(C(=C(c2ccccc2)C(F)(F)F)c2ccc(O)cc2)cc1
100	CCOC(=O)CCC(=O)OCC(F)(F)Cn1nc(C)c(-c2ccc3c(c2)NC(=O)CO3)c1-c1ccc(F)cc1
206	CC1(C)NC(=O)N(CC(CS(=O)(=O)C2(C(F)(F)F)C=CC(c3ccccc3)=CC2)N(O)C=O)C1=O (centres undefined)
216 to 219	O=c1[nH]nccc1-c1ccccc1
147 to 151	O=C(Nc1cccc(O)c1)C(CS)C(F)(F)F (centres undefined)
